The record followed here is US7732482B2, “Compound from Antrodia camphorata and the use thereof” (Simpson Biotech Co., Ltd., priority 2004, dated 2010).

Molecules are shown by their SMILES.

One assay deals with HSC-T6 cells. Description: Measurement of intracellular ROS (DCFH-DA, flow cytometry and confocal microscopy). In kind it is cell-based, mice. Conditions: HSC-T6, TGF-β 2 ng/ml; FIGS. 2-4. The protocol:
For visualization and analysis of intracellular ROS, the oxidation-sensitive probe DCFH-DA was used, as previously described. To analyze the net intracellular generation of ROS by flow cytometry, cells were detached by trypsinization after incubation in the absence or presence of the different factors. The cellular fluorescence intensity was measured after 30 min incubation with […] DCFH-DA, by using the same flow cytometer described above. Propidium iodide (0.005%) was used to detect dead cells. For each analysis, 10,000 events were recorded. For confocal microscopy analysis, after incubation of cells in the absence or presence of the different factors, they were washed twice with PBS and the cellular fluorescence intensity was visualized after 30 min of incubation with […] DCFH-DA by using the same confocal microscopy described above. The analysis results were illustrated in FIGS. 2-4. […]
The influences of hepacin on mice-derived once-activated HSC-T6 line were studied. […] The luciferase activity was determined with or without 10, 5, 1 nM of hepacin in the absence or presence of 2 ng/ml of transforming growth factor TGF-β. The effects of hepacin on generation of intracellular reactive oxygen species (ROS) in HSC-T6 were also analyzed.

The next assay relates to TGF-β. Description: TGF-β mediated inflammation and fibrosis, cell model (HSC-T6) and animal model (mouse liver fibrosis). Conditions: overall conclusion from the tests of Example 2 (FIGS. 5-10). Here is the method: The EMSA used the following oligonucleotides: consensus Sp1 (f), 5′-GTTGCGGGGCGGGGCCGAGTG-3′; consensus Sp1 (r), 3′-AACGCCCCGCCCCGGCTCACG-5′. 30 pmol of each of the forward and reverse oligonucleotides placed in a volume of 23 μl of 1× Klenow (DNA polymerase) buffer were heated at 94° C. for 2 min and annealed at room temperature for 30 min. The annealed double-stranded oligonucleotides were end-labeled by a fill-in reaction using DNA polymerase (Klenow)(Promega). One unit of the DNA polymerase (Klenow) and […] of (−32P)dCTP (PerkinElmer Life Sciences) were added into the annealed oligonucleotides and the mixture was incubated at 30° C. for 15 min. […] Samples were analyzed on a 4% polyacrylamide gel (acrylamide/bisacrylamide 29:1 in 0.5×Tris borate-EDTA buffer) at 10 V/cm for 2.5 h. The gel was dried and analyzed by autoradiography. […]
Liver samples (0.5 g) were lysed (Reporter lysis buffer, Promega, Madison, Wis., USA), the protein were boiled in Laemmli's sample buffer and samples were subjected to 10% SDSPAGE followed by western immunoblotting. […] Immunoreactive bands were detected using the enhanced chemiluminescence (ECL) reagent using SuperSignal West Pico Chemiluminescent Substrate (Pierce, Rockford, Ill., USA). The light emitted by the chemical reaction was detected by exposure to Hyperfilm ECL (Amersham Biosciences, Uppsala, Sweden). […]

For `CC(C)=CCOc1ccc(C2=C(CC(C)C)C(=O)NC2=O)cc1` [Compound 2, 3-Isobutyl-4-[4-(3-methyl-2-butenyloxy)phenyl]-1H-pyrrole-2,5-dione], the ROS scavenging entry with HSC-T6 cells is listed as “ROS Scavenger”. Moreover, the “TGF-β mediated inflammation and fibrosis” value with TGF-β is “Down Regulated TGF-β Mediated Inflammation and Fibrosis”.
